Assay results: article PMC10721329, “Quisinostat is a brain-penetrant radiosensitizer in glioblastoma” (JCI Insight, 2023)
“And” between values parts separate entries of the source, which are not always exact repeats. Equal values may be shown once.

Experiments:
orthotopic GB126 tumors = experiment: Bioluminescence imaging of tumor burden, orthotopic GB126 PDX; type: in vivo, athymic nude mice; settings: individual mice
Procedure: We additionally questioned whether QST, either alone or in combination with IR, could extend the survival of tumor-bearing mice. In this study, mice received the same treatments described above, but after completion of the 1-week IR regimen, mice continued to receive QST at 10 mg/kg or vehicle solution on MWF until study completion, as determined by large tumor burden and onset of neurological symptoms (Figure 8A). […] Although QST monotherapy slowed tumor growth, median survival for the QST-treated mice was only 4 days longer than for the vehicle-treated mice (P < 0.01), and IR alone increased median survival by 17 days (P < 0.001; Figure 8D). However, combining QST with IR led to a significant increase in median survival (37 days, P < 0.001) compared with the vehicle (Figure 8D). […]
Rad225XL irradiator (Precision X -Ray). […]
Live Bioluminescence Imaging
Two weeks after implantation, mice were examined for tumor growth by monitoring bioluminescence every 7 days using the IVIS Xenogen Spectrum platform. D -Luciferin Potassium Salt (Gold Biotechnology) was dissolved in PBS at a final concentration of 15 mg/mL. All mice were weighed each week and administered D -Luciferin via an intraperitoneal injection (10 μl/g). Fifteen minutes after injection, the mice were sedated using gaseous isoflurane (Piramal) and placed inside an IVIS Spectrum in vivo imaging system (Perkin Elmer) […]
for bioluminescence imaging. The total flux (photons/second) within the region of interest was calculated using the Living Image software 4.5 (Perkin Elmer).
Preparation of QST for In Vivo Use
For in vivo preparation, QST was dissolved in 50% polyethylene glycol (PEG) 300, 50% sterile water solution for 10 mg/kg dosing. The suspension was then sonicated for 10 minutes to allow the drug to completely dissolve. Finally, the pH of both the drug and the vehicle solutions was adjusted to 7.4 before intraperitoneal dosing. […]
In Vivo Irradiation Studies
Intracranial or flank tumor–bearing nude mice were sedated with gaseous isoflurane before
IR. On the first week of treatment, 2 hours after treatment with QST or vehicle, the mice were […]

[1] = cited from earlier work
[2] = Stability in human brain homogenate at 37°C; type: in vitro ADME; settings: for %stability in human brain homogenate, mean / stability in human brain homogenate, [QST], % of control: 37 C; for stability in human brain homogenate, [QST], % of control: single data points
Procedure: Hydroxamic acid–based compounds have been reported to display poor stability and high plasma clearance due to the presence of arylesterases and carboxylesterases in rodent blood ([34]). Therefore, we measured the stability of QST in mouse plasma and brain to determine whether drug degradation occurred during our sample preparations and equilibrium dialyses for the determination of unbound drug level (performed at 37°C). […] QST degradation was also observed in mouse brain homogenate (Figure 6B). However, perfusion of mice before brain collection prevented rapid drug degradation in the brain matrix. […] Degradation of QST can also be constrained if plasma and brain samples are processed at 4°C (Supplemental Figure 4A). All subsequent sample preparations were therefore performed on ice-cold baths to avoid degradation of QST in our PK analyses. […] The observed stability is probably due to the absence of esterases in human matrices, which are responsible for degradation of QST ([34]). Because we employed QST in several in vitro studies (Figures 1–4), the stability of the molecule was also tested in the cell media used to culture GSCs (neurobasal medium; see Methods).
Stability Study in Mouse Plasma, Mouse Brain, Human Plasma, Human Brain, and Neural […]
The stability of QST was determined in BALB/c mouse plasma, male nude athymic perfused and nonperfused mouse brain homogenate (1:9 w/v of PBS; pH 7.4), human brain (obtained from VRL Eurofins) homogenate (1:4 w/v of PBS; pH 7.4), pooled human plasma (Innovative Research), and neurobasal media. QST stock solutions (1 mM) were prepared in acetonitrile, subsequently diluted in a 40% methanol mixture, and added t o the matrices to make final concentrations of 100 nM or 10 nM. Then 50 or 30 µL of either plasma or brain homogenate containing QST were aliquoted into 1.5-mL microcentrifuge tubes (Eppendorf) and were incubated at either 4 °C or 37 °C for 0, 2, 4, 6, 12, or 24 hours (n = 3 at each time point). […]
Plasma and brain […]
homogenate samples were stored at −80 °C until LC-MS/MS analysis. […]

**Q.** With `Cn1cc(CNCC2CCN(c3ncc(C(=O)NO)cn3)CC2)c2ccccc21` [QST, quisinostat] as the compound, how does the “IVIS imaging, bioluminescence” value (orthotopic GB126 tumors; Qstat 10 mg/kg + IR 6 Gy, day 0 post Tx start (baseline)) read?
**A.** 75600000 photons/seconds and 79700000 photons/seconds and 125000000 photons/seconds and 47900000 photons/seconds and 137000000 photons/seconds and 47600000 photons/seconds and 28100000 photons/seconds and 33000000 photons/seconds and 18800000 photons/seconds and 23200000 photons/seconds

**Q.** And the “IVIS imaging, bioluminescence” value (orthotopic GB126 tumors; Qstat 10 mg/kg + IR 6 Gy, day 8 post Tx start)?
**A.** 37000000 photons/seconds and 56500000 photons/seconds and 14000000 photons/seconds and 16000000 photons/seconds and 118000000 photons/seconds and 67200000 photons/seconds and 5460000 photons/seconds and 2880000 photons/seconds and 542000 photons/seconds and 178000000 photons/seconds

**Q.** What about the “IVIS imaging, bioluminescence” value (orthotopic GB126 tumors; Qstat 10 mg/kg + IR 6 Gy, day 29 post Tx start) of the same compound?
**A.** 111000000 photons/seconds and 75900000 photons/seconds and 60800000 photons/seconds and 55400000 photons/seconds and 150000000 photons/seconds and 22000000 photons/seconds and 8210000 photons/seconds and 10600000 photons/seconds and 10200000 photons/seconds and 15700000 photons/seconds

**Q.** And the “IVIS imaging, bioluminescence” value (orthotopic GB126 tumors; Qstat 10 mg/kg + IR 6 Gy, day 36 post Tx start)?
**A.** 9000000 photons/seconds and 4380000 photons/seconds and 371000000 photons/seconds and 40800000 photons/seconds and 426000000 photons/seconds and 6690000 photons/seconds and 51000000 photons/seconds and 114000000 photons/seconds and 111000000 photons/seconds

**Q.** What about the “IVIS imaging, bioluminescence” value (orthotopic GB126 tumors; Qstat 10 mg/kg + IR 6 Gy, day 43 post Tx start) of the same compound?
**A.** 943000000 photons/seconds and 1020000000 photons/seconds and 359000000 photons/seconds and 413000000 photons/seconds and 832000000 photons/seconds and 252000000 photons/seconds (2×) and 865000000 photons/seconds and 139000000 photons/seconds and 55200000 photons/seconds

**Q.** What about the “IVIS imaging, bioluminescence” value (orthotopic GB126 tumors; Qstat 10 mg/kg + IR 6 Gy, day 50 post Tx start) of the same compound?
**A.** 1010000000 photons/seconds and 2140000000 photons/seconds and 260000000 photons/seconds and 1180000000 photons/seconds and 4090000000 photons/seconds and 2810000000 photons/seconds and 808000000 photons/seconds and 15100000 photons/seconds and 286000000 photons/seconds

**Q.** What about the “IVIS imaging, bioluminescence” value (orthotopic GB126 tumors; Qstat 10 mg/kg + IR 6 Gy, day 57 post Tx start) of the same compound?
**A.** 6040000000 photons/seconds and 4070000000 photons/seconds and 1070000000 photons/seconds and 2530000000 photons/seconds and 1020000000 photons/seconds and 1870000000 photons/seconds and 1150000000 photons/seconds

**Q.** What about the “IVIS imaging, bioluminescence” value (orthotopic GB126 tumors; Qstat 10 mg/kg alone, day 0 post Tx start (baseline), PDX model) of the same compound?
**A.** 86400000 photons/seconds and 33100000 photons/seconds and 140000000 photons/seconds and 26400000 photons/seconds and 105000000 photons/seconds and 45000000 photons/seconds and 52600000 photons/seconds and 53600000 photons/seconds and 60100000 photons/seconds and 13600000 photons/seconds

**Q.** And the “IVIS imaging, bioluminescence” value (orthotopic GB126 tumors; Qstat 10 mg/kg alone, day 8 post Tx start)?
**A.** 42100000 photons/seconds and 58500000 photons/seconds and 585000000 photons/seconds and 200000000 photons/seconds and 458000000 photons/seconds and 884000000 photons/seconds and 49000000 photons/seconds and 19500000 photons/seconds and 581000000 photons/seconds and 107000000 photons/seconds

**Q.** And the “IVIS imaging, bioluminescence” value (orthotopic GB126 tumors; Qstat 10 mg/kg alone, day 15 post Tx start)?
**A.** 5290000 photons/seconds and 888000000 photons/seconds and 5530000 photons/seconds and 4270000 photons/seconds and 7590000 photons/seconds and 19400000 photons/seconds

**Q.** What about the “IVIS imaging, bioluminescence” value (orthotopic GB126 tumors; Qstat 10 mg/kg alone, day 29 post Tx start) of the same compound?
**A.** 1550000000 photons/seconds and 10600000000 photons/seconds and 15100000000 photons/seconds and 7070000000 photons/seconds and 3880000000 photons/seconds and 387000000 photons/seconds and 12600000000 photons/seconds and 413000000 photons/seconds and 4430000000 photons/seconds

**Q.** What about the maximum-tolerated dose ([1]; patients, given 3 times weekly) of the same compound?
**A.** 12 mg

**Q.** And the “hematologic toxicities (grade 1 and 2), share of patients” value ([1]; phase I trials)?
**A.** < 5%

**Q.** And the “%stability in human brain homogenate, mean” value (“%stability” below) ([2]; 10 nM, 0 hrs)?
**A.** 100 % of control

**Q.** What about the “stability in human brain homogenate, [QST], % of control” value (“stability … % of control” for short) ([2]; 10 nM, 0 hrs) of the same compound?
**A.** 101.7 % of control and 98.5 % of control and 98.3 % of control

**Q.** And the “%stability” value ([2]; 10 nM, 2 hrs)?
**A.** 90.6 % of control

**Q.** What about the “stability … % of control” value ([2]; 10 nM, 2 hrs) of the same compound?
**A.** 87.5 % of control and 89.1 % of control and 95.1 % of control

**Q.** What about the “%stability” value ([2]; 10 nM, 6 hrs) of the same compound?
**A.** 94.8 % of control

**Q.** What about the “stability … % of control” value ([2]; 10 nM, 6 hrs) of the same compound?
**A.** 95.6 % of control and 93.7 % of control and 94.9 % of control

**Q.** What about the “%stability” value ([2]; 10 nM, 24 hrs) of the same compound?
**A.** 82.9 % of control

**Q.** What about the “stability … % of control” value ([2]; 10 nM, 24 hrs) of the same compound?
**A.** 83.1 % of control and 81 % of control and 84.6 % of control

**Q.** And the “%stability” value ([2]; 100 nM, 0 hrs)?
**A.** 100 % of control

**Q.** What about the “stability … % of control” value ([2]; 100 nM, 0 hrs) of the same compound?
**A.** 98.8 % of control and 102.5 % of control and 98.7 % of control

**Q.** And the “%stability” value ([2]; 100 nM, 2 hrs)?
**A.** 89.0 % of control

**Q.** What about the “stability … % of control” value ([2]; 100 nM, 2 hrs) of the same compound?
**A.** 90.7 % of control and 89.5 % of control and 86.8 % of control

**Q.** And the “%stability” value ([2]; 100 nM, 6 hrs)?
**A.** 92.7 % of control

**Q.** And the “stability … % of control” value ([2]; 100 nM, 6 hrs)?
**A.** 93.9 % of control and 90.6 % of control and 93.7 % of control

**Q.** What about the “%stability” value ([2]; 100 nM, 24 hrs) of the same compound?
**A.** 84.4 % of control

**Q.** And the “stability … % of control” value ([2]; 100 nM, 24 hrs)?
**A.** 81.6 % of control and 84.2 % of control and 87.3 % of control

**Q.** What about the “stability in human brain homogenate” value ([2]; 37°C) of the same compound?
**A.** completely stable
